The source made the active and inactive calls. The rule behind the calls is not given here.

The text below walks through data of PubChem BioAssay AID463182 (University of Pittsburgh Molecular Library Screening Center, 2010).

For this test, the target named is Furin (Homo sapiens) (UniProt P09958). In words: human furin inhibition, concentration series – biochemical, fluorescence intensity, IC50, dose response (AID 463182). The following applies: purified furin, fluorogenic peptide substrate cleavage.
Sequence of Furin (Homo sapiens) (P09958 108-714 limits assumed): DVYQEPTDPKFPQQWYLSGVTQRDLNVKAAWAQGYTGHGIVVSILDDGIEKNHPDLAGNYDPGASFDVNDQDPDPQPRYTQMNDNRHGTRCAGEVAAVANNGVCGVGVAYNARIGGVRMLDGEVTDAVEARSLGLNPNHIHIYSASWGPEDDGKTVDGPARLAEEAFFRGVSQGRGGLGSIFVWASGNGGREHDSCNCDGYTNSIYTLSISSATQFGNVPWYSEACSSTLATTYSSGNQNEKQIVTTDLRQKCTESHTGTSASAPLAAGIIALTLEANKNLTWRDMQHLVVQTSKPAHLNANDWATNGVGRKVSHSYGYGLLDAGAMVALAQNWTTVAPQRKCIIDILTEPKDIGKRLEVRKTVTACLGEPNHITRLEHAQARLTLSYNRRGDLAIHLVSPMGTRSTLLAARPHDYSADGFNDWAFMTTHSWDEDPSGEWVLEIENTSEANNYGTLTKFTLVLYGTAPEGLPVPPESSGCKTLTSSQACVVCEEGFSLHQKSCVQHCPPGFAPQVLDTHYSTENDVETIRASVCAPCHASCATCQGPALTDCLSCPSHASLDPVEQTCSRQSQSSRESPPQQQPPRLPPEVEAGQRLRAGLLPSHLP
Regarding `CC1(C)CC(=O)C(C=Nc2cccnc2)=C(O)C1`, the IC50 is > 50 µM (inactive).
Next, `CC1(C)CC(=O)C(/C=N/n2cnc3ccccc3c2=O)=C(O)C1`: > 50 µM (inactive); `Cc1cccc(/N=C/C2=C(O)CC(C)(C)CC2=O)n1`: > 50 µM (inactive).
